Results on 20 molecules are retold here after US20240228488A1 (TAKEDA PHARMACEUTICAL COMPANY LIMITED, priority 2021, published 2024).

Some results are limits rather than exact numbers.

The target in experiment [1] is human activated kallikrein enzyme (Homo sapiens, UniProt P03952). The experiment can be described thus: Plasma kallikrein inhibition, fluorogenic PFR-AMC substrate, 500 pM activated kallikrein format. In kind it is biochemical. As to conditions: 500 pM activated kallikrein, 300 uM PFR-AMC, 30 min preincubation, 10 min reaction; read-out: Primary Dose Response Assay: Average EC50. In short, it runs like this:
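Fluorogenic readout (ex 380 / em 460 nm) after 10 min room-temperature reaction with 300 uM Pro-Phe-Arg-AMC substrate, following 30 min preincubation of inhibitors with 500 pM enzyme. Buffer: Tris pH 7.5, EDTA, NaCl, PEG-400, Triton X-100. Values given as EC50 ranges.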

Another experiment addresses T1, plasma kallikrein (Homo sapiens, UniProt P03952).
T1 construct: from tissue
The experiment can be described thus: Neat human plasma assay, FXIIa contact pathway-activated, PFR-AMC substrate. In kind it is biochemical. The conditions noted are these: citrated human plasma 78% final, 10 nM human FXIIa, 100 μM PFR-AMC; read-out: Human Plasma Assay: IC90. In short, it runs like this:
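Compound inhibition of plasma kallikrein measured as PFR-AMC (100 μM) cleavage rate over 5 min at room temperature in 78% citrated human plasma activated with 10 nM FXIIa (Tris pH 7.5 buffer). IC50/IC90 from 4-parameter fit of rate versus inhibitor concentration.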

human activated kallikrein enzyme, sequence (P03952 391-638 limits assumed): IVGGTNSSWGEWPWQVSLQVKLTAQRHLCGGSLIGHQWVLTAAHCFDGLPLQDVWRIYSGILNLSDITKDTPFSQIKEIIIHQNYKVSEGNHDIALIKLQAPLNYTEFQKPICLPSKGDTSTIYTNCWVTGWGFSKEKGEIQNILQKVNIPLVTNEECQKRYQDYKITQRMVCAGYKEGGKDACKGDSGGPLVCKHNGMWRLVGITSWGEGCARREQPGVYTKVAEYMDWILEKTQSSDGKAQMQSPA
human activated kallikrein enzyme, sequence (P03952 20-390 partner limits assumed): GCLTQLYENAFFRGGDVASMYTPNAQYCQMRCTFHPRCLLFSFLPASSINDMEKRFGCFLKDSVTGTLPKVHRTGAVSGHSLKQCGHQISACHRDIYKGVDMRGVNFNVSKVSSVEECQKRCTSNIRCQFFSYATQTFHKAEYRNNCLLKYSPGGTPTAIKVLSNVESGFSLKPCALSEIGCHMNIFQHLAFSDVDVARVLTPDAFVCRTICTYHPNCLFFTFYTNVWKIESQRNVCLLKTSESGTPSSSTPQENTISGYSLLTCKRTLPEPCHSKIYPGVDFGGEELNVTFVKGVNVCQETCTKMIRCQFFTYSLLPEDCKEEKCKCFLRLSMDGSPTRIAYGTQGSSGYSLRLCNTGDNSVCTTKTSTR
T1 sequence (P03952 391-638 limits assumed): as the sequence (P03952 391-638 limits assumed) above
T1 sequence (P03952 20-390 partner limits assumed): as the sequence (P03952 20-390 partner limits assumed) above

Consider `CN1CCN(c2cc(C3CC3)cn3cc(CNc4cc(NC(=O)[C@H]5C[C@@H]5c5cccc(Cl)c5)ncn4)nc23)CC1CO` (stereo partly drawn) [Example I-7, (1S,2S)-2-(3-chlorophenyl)-N-(6-(((6-cyclopropyl-8-(3-(hydroxymethyl)-4-methylpiperazin-1-yl)imidazo[1,2-a]pyridin-2-yl)methyl)amino)pyrimidin-4-yl)cyclopropane-1-carboxamide], for which the EC50 (as a rule, the concentration giving half of the maximal effect) in experiment [1] lay within 1 to 10 nM. On plasma kallikrein, the IC90 (usually the concentration at which the effect reaches the 90% level) fell in the range of 400 to 1500 nM.

Consider `CN1CN(c2cc(C3CC3)cn3cc(CNc4cc(NC(=O)[C@H]5C[C@@H]5c5cccc(Cl)c5)ncn4)nc23)CC1=O` [Example I-9, (1S,2S)-2-(3-chlorophenyl)-N-(6-(((6-cyclopropyl-8-(3-methyl-4-oxoimidazolidin-1-yl)imidazo[1,2-a]pyridin-2-yl)methyl)amino)pyrimidin-4-yl)cyclopropane-1-carboxamide], for which the EC50 in experiment [1] was 1 to 10 nM. Further, the IC90 at plasma kallikrein was 1500 to 10000 nM.

As to `O=C(Nc1cc(NCc2cn3cc(C4CC4)cc(N4CCS(=O)(=O)CC4)c3n2)ncn1)[C@H]1C[C@@H]1c1cccc(Cl)c1` [Example I-10, (1S,2S)-2-(3-chlorophenyl)-N-(6-(((6-cyclopropyl-8-(1,1-dioxidothiomorpholino)imidazo[1,2-a]pyridin-2-yl)methyl)amino)pyrimidin-4-yl)cyclopropane-1-carboxamide], the EC50 in experiment [1] lay within 1 to 10 nM. At plasma kallikrein, the IC90 lay within 1500 to 10000 nM.

As for `O=C(Nc1cc(NCc2cn3cc(C4CC4)cc(N4CCN5CCC4C5)c3n2)ncn1)[C@H]1C[C@@H]1c1cccc(Cl)c1` (stereo partly drawn) [Example I-11, (1S,2S)-N-(6-(((8-(1,4-diazabicyclo[3.2.1]octan-4-yl)-6-cyclopropylimidazo[1,2-a]pyridin-2-yl)methyl)amino)pyrimidin-4-yl)-2-(3-chlorophenyl)cyclopropane-1-carboxamide], in experiment [1], the EC50 is 1 to 10 nM. Further, at plasma kallikrein, the IC90 was 1500 to 10000 nM.

With `CNC1CCN(c2cc(C3CC3)cn3cc(CNc4cc(NC(=O)[C@H]5C[C@@H]5c5cccc(Cl)c5)ncn4)nc23)C1` (stereo partly drawn) [Example I-16, (1S,2S)-2-(3-chlorophenyl)-N-(6-(((6-cyclopropyl-8-(3-(methylamino)pyrrolidin-1-yl)imidazo[1,2-a]pyridin-2-yl)methyl)amino)pyrimidin-4-yl)cyclopropane-1-carboxamide], the EC50 in experiment [1] was less than 1 nM. For the same molecule, the IC90 at plasma kallikrein was 400 to 1500 nM.

Take `CN(C)C1CCN(c2cc(C3CC3)cn3cc(CNc4cc(NC(=O)[C@H]5C[C@@H]5c5cccc(Cl)c5)ncn4)nc23)C1=O` (stereo partly drawn) [Example I-17, (1S,2S)-2-(3-chlorophenyl)-N-(6-(((6-cyclopropyl-8-(3-(dimethylamino)-2-oxopyrrolidin-1-yl)imidazo[1,2-a]pyridin-2-yl)methyl)amino)pyrimidin-4-yl)cyclopropane-1-carboxamide]: in experiment [1], the EC50 was less than 1 nM. Further, the IC90 at plasma kallikrein fell in the range of 400 to 1500 nM.

Turning to `CN(C)C1CC(=O)N(c2cc(C3CC3)cn3cc(CNc4cc(NC(=O)[C@H]5C[C@@H]5c5cccc(Cl)c5)ncn4)nc23)C1` (stereo partly drawn) [Example I-18, (1S,2S)-2-(3-chlorophenyl)-N-(6-(((6-cyclopropyl-8-(4-(dimethylamino)-2-oxopyrrolidin-1-yl)imidazo[1,2-a]pyridin-2-yl)methyl)amino)pyrimidin-4-yl)cyclopropane-1-carboxamide], the EC50 in experiment [1] is less than 1 nM. Also, the IC90 on plasma kallikrein is less than 400 nM.

In the case of `O=C(Nc1cc(NCc2cn3cc(C4CC4)cc(N4CNCC4=O)c3n2)ncn1)[C@H]1C[C@@H]1c1cccc(Cl)c1` [Example I-19, (1S,2S)-2-(3-chlorophenyl)-N-(6-(((6-cyclopropyl-8-(5-oxoimidazolidin-1-yl)imidazo[1,2-a]pyridin-2-yl)methyl)amino)pyrimidin-4-yl)cyclopropane-1-carboxamide], the EC50 in experiment [1] was less than 1 nM. Moreover, the IC90 at plasma kallikrein is less than 400 nM.

For `O=C(Nc1cc(NCc2cn3cc(C4CC4)cc(N4CCNC(C(F)(F)F)C4)c3n2)ccn1)[C@H]1C[C@@H]1c1cccc(Cl)c1` (stereo partly drawn) [Example I-21, (1S,2S)-2-(3-chlorophenyl)-N-(4-(((6-cyclopropyl-8-(3-(trifluoromethyl)piperazin-1-yl)imidazo[1,2-a]pyridin-2-yl)methyl)amino)pyridin-2-yl)cyclopropane-1-carboxamide], in experiment [1], the EC50 is 1 to 10 nM. In addition, at plasma kallikrein, the IC90 is 1500 to 10000 nM.

With `O=C(Nc1cc(NCc2cn3cc(C4CC4)cc(N4CCN5CCC4C5)c3n2)ccn1)[C@H]1C[C@@H]1c1cccc(Cl)c1` (stereo partly drawn) [Example I-23, (1S,2S)-N-(4-(((8-(1,4-diazabicyclo[3.2.1]octan-4-yl)-6-cyclopropylimidazo[1,2-a]pyridin-2-yl)methyl)amino)pyridin-2-yl)-2-(3-chlorophenyl)cyclopropane-1-carboxamide], the EC50 in experiment [1] is less than 1 nM. In addition, the IC90 at plasma kallikrein lay in the range of 400 to 1500 nM.

As for `O=C(Nc1cc(NCc2cn3cc(C4CC4)cc(N4CC5(C4)CN(C4CC4)C5)c3n2)ccn1)[C@H]1C[C@@H]1c1cccc(Cl)c1` [Example I-24, (1S,2S)-2-(3-chlorophenyl)-N-(4-(((6-cyclopropyl-8-(6-cyclopropyl-2,6-diazaspiro[3.3]heptan-2-yl)imidazo[1,2-a]pyridin-2-yl)methyl)amino)pyridin-2-yl)cyclopropane-1-carboxamide], the EC50 in experiment [1] is less than 1 nM. Further, the IC90 at plasma kallikrein lay in the range of 1500 to 10000 nM.

Take `CN(C)C1CCN(c2cc(C3CC3)cn3cc(CNc4ccnc(NC(=O)[C@H]5C[C@@H]5c5cccc(Cl)c5)c4)nc23)C1` (stereo partly drawn) [Example I-25, (1S,2S)-2-(3-chlorophenyl)-N-(4-(((6-cyclopropyl-8-(3-(dimethylamino)pyrrolidin-1-yl)imidazo[1,2-a]pyridin-2-yl)methyl)amino)pyridin-2-yl)cyclopropane-1-carboxamide]: the EC50 in experiment [1] was less than 1 nM. Moreover, on plasma kallikrein, the IC90 is 400 to 1500 nM.

Turning to `O=C(Nc1cc(NCc2cn3cc(C4CC4)cc(NC4COC4)c3n2)ccn1)[C@H]1C[C@@H]1c1cccc(Cl)c1` [Example I-26, (1S,2S)-2-(3-chlorophenyl)-N-(4-(((6-cyclopropyl-8-(oxetan-3-ylamino)imidazo[1,2-a]pyridin-2-yl)methyl)amino)pyridin-2-yl)cyclopropane-1-carboxamide], the EC50 in experiment [1] was less than 1 nM. The IC90 on plasma kallikrein is 1500 to 10000 nM.

For the molecule `Cc1ccnc([C@H]2C[C@@H]2C(=O)Nc2cc(N[C@H](C)c3cn4cc(C5CC5)cc(N5CC6(COC6)CC5=O)c4n3)nc(C)n2)n1` [Example I-27, (1S,2S)—N-(6-(((R)-1-(6-cyclopropyl-8-(7-oxo-2-oxa-6-azaspiro[3.4]octan-6-yl)imidazo[1,2-a]pyridin-2-yl)ethyl)amino)-2-methylpyrimidin-4-yl)-2-(4-methylpyrimidin-2-yl)cyclopropane-1-carboxamide], the EC50 in experiment [1] is less than 1 nM. Moreover, the IC90 on plasma kallikrein was less than 400 nM.

Turning to `CN1CCC(Oc2cc(C3CC3)cn3cc(CNc4cc(NC(=O)[C@H]5C[C@@H]5c5cccc(Cl)c5)ncn4)nc23)C1=O` (stereo partly drawn) [Example I-147, (1S,2S)-2-(3-chlorophenyl)-N-(6-(((6-cyclopropyl-8-((1-methyl-2-oxopyrrolidin-3-yl)oxy)imidazo[1,2-a]pyridin-2-yl)methyl)amino)pyrimidin-4-yl)cyclopropane-1-carboxamide], in experiment [1], the EC50 was 1 to 10 nM. Further, at plasma kallikrein, the IC90 lay within 1500 to 10000 nM.

In the case of `CN(C)S(=O)(=O)c1cc(C2CC2)cn2cc(CNc3cc(NC(=O)[C@H]4C[C@@H]4c4cccc(Cl)c4)ncn3)nc12` [Example I-151, (1S,2S)-2-(3-chlorophenyl)-N-(6-(((6-cyclopropyl-8-(N,N-dimethylsulfamoyl)imidazo[1,2-a]pyridin-2-yl)methyl)amino)pyrimidin-4-yl)cyclopropane-1-carboxamide], the EC50 in experiment [1] lay in the range of 1 to 10 nM. Also, at plasma kallikrein, the IC90 was in the range of 1500 to 10000 nM.

In the case of `CN1CCN(c2cc(C3CC3)cn3cc(CNc4cc(NC(=O)[C@H]5C[C@@H]5c5cccc(Cl)c5)ncn4)nc23)CC1=O` [Example I-153, (1S,2S)-2-(3-chlorophenyl)-N-(6-(((6-cyclopropyl-8-(4-methyl-3-oxopiperazin-1-yl)imidazo[1,2-a]pyridin-2-yl)methyl)amino)pyrimidin-4-yl)cyclopropane-1-carboxamide], the EC50 in experiment [1] lay in the range of 1 to 10 nM. For the same molecule, at plasma kallikrein, the IC90 fell in the range of 1500 to 10000 nM.

Turning to `O=C(Nc1cc(NCc2cn3cc(C4CC4)cc(N4CCSCC4=O)c3n2)ncn1)[C@H]1C[C@@H]1c1cccc(Cl)c1` [Example I-155, (1S,2S)-2-(3-chlorophenyl)-N-(6-(((6-cyclopropyl-8-(3-oxothiomorpholino)imidazo[1,2-a]pyridin-2-yl)methyl)amino)pyrimidin-4-yl)cyclopropane-1-carboxamide], the EC50 in experiment [1] is less than 1 nM. Besides, at plasma kallikrein, the IC90 lay in the range of 1500 to 10000 nM.

As to `CN1CCN(c2cc(C3CC3)cn3cc(CNc4cc(NC(=O)[C@H]5C[C@@H]5c5cccc(Cl)c5)ncn4)nc23)C1=O` [Example I-157, (1S,2S)-2-(3-chlorophenyl)-N-(6-(((6-cyclopropyl-8-(3-methyl-2-oxoimidazolidin-1-yl)imidazo[1,2-a]pyridin-2-yl)methyl)amino)pyrimidin-4-yl)cyclopropane-1-carboxamide], in experiment [1], the EC50 was less than 1 nM. At plasma kallikrein, the IC90 was in the range of 1500 to 10000 nM.

For the molecule `CC(C)(O)c1cc(C2CC2)cn2cc(CNc3cc(NC(=O)[C@H]4C[C@@H]4c4cccc(Cl)c4)ncn3)nc12` [Example I-159, (1S,2S)-2-(3-chlorophenyl)-N-(6-(((6-cyclopropyl-8-(2-hydroxypropan-2-yl)imidazo[1,2-a]pyridin-2-yl)methyl)amino)pyrimidin-4-yl)cyclopropane-1-carboxamide], the EC50 in experiment [1] lay in the range of 1 to 10 nM. Moreover, on plasma kallikrein, the IC90 is 10000 to 48000 nM.
